Legend:
Assay type in all cases: in vivo
[1] = tested on: ECHCG (Echinocloa crus-galli); assay: Greenhouse post-emergence test, test series 1, ECHCG; conditions: Echinochloa crus-galli, application rate 62.5 g/ha, scale 0 to 100 (100 = complete destruction, 0 = no damage)
Source text: (§1) The seeds of the test plants were sown separately for each species. For the pre-emergence treatment, the active ingredients, which had been suspended or emulsified in water, were applied directly after sowing by means of finely distributing nozzles. The containers were irrigated gently to promote germination and growth and subsequently covered with transparent plastic hoods until the plants had rooted. This cover caused uniform germination of the test plants, unless this had been impaired by the active ingredients. For the post-emergence treatment, the test plants were first grown to a height of 3 to 15 cm, depending on the plant habit, and only then treated with the active ingredients which had been suspended or emulsified in water. For this purpose, the test plants were either sown directly and grown in the same containers, or they were first grown separately as seedlings and transplanted into the test containers a few days prior to treatment. Depending on the species, the plants were kept at 10-25° C. or 20-25° C., respectively. The test period extended over 2 to 4 weeks. During this time, the plants were tended, and their response to the individual treatments was evaluated. Evaluation was carried out using a scale from 0 to 100. 100 means no emergence of the plants, or complete destruction of at least the aerial moieties, and 0 means no damage, or normal course of growth. A good herbicidal activity is given at values of at least 70 and a very good herbicidal activity is given at values of at least 85. Test Series 1: At an application rate of 62.5 g/ha the following compounds were tested in post-emergence tests against: ECHCG (Echinocloa crus-galli)

[2] = tested on: CHEAL (Chenopodium album); assay: Greenhouse post-emergence test, test series 1, CHEAL; conditions: application rate 62.5 g/ha, scale 0 to 100 (100 = complete destruction, 0 = no damage)
Source text: as §1, with “CHEAL (Chenopodium album)” for “ECHCG (Echinocloa crus-galli)”

[3] = tested on: ALOMY (Alopecurus myosuroiedes); assay: Greenhouse pre-emergence test, test series 2, ALOMY; conditions: application rate 125 g/ha, scale 0 to 100 (100 = no emergence, 0 = no damage)
Source text: as §1, with “Series 2:” for “Series 1:”, “of 125” for “of 62.5”, “in pre-emergence” for “in post-emergence”, “tests against ALOMY (Alopecurus myosuroiedes)” for “tests against: ECHCG (Echinocloa crus-galli)”

[4] = tested on: SETFA (Setaria faberi); assay: Greenhouse pre-emergence test, test series 2, SETFA; conditions: application rate 125 g/ha, scale 0 to 100 (100 = no emergence, 0 = no damage)
Source text: as §1, with “Series 2:” for “Series 1:”, “of 125” for “of 62.5”, “in pre-emergence” for “in post-emergence”, “tests against SETFA (Setaria faberi)” for “tests against: ECHCG (Echinocloa crus-galli)”

CC(C)N(CC(F)(F)F)C(=O)Nc1c(C(F)(F)F)cc(F)c(C(=O)Nc2nnnn2C)c1Cl [Example 14]
> 85%: pest or weed control at 62.5 g/ha [1] | pest or weed control at 62.5 g/ha [2] | pest or weed control at 125 g/ha [3] | pest or weed control at 125 g/ha [4]

Cc1c(NC(=O)N(C)CC(F)(F)F)c(Br)cc(F)c1C(=O)Nc1nnnn1C [Example 1, 4-bromo-6-fluoro-2-methyl-N-(1-methyltetrazol-5-yl)-3-[[methyl(2,2,2-trifluoroethyl)carbamoyl]amino]benzamide]
> 85%: pest or weed control at 62.5 g/ha [1] | pest or weed control at 62.5 g/ha [2] | pest or weed control at 125 g/ha [3] | pest or weed control at 125 g/ha [4]

Cc1c(NC(=O)N(C)CC(F)(F)F)c(Cl)cc(F)c1C(=O)Nc1nnnn1C [Example 12]
> 85%: pest or weed control at 62.5 g/ha [1] | pest or weed control at 62.5 g/ha [2] | pest or weed control at 125 g/ha [3]

CCN(CC(F)(F)F)C(=O)Nc1c(Cl)cc(F)c(C(=O)Nc2nnnn2C)c1Cl [Example 8]
> 85%: pest or weed control at 62.5 g/ha [1] | pest or weed control at 62.5 g/ha [2] | pest or weed control at 125 g/ha [3] | pest or weed control at 125 g/ha [4]

Cn1nnnc1NC(=O)c1c(F)cc(Cl)c(NC(=O)N(CC(F)(F)F)C2CC2)c1Cl [Example 7]
> 85%: pest or weed control at 62.5 g/ha [1] | pest or weed control at 62.5 g/ha [2] | pest or weed control at 125 g/ha [3] | pest or weed control at 125 g/ha [4]

CN(CC(F)(F)F)C(=O)Nc1c(C(F)(F)F)cc(F)c(C(=O)Nc2nnnn2C)c1Cl [Example 10]
> 85%: pest or weed control at 62.5 g/ha [1] | pest or weed control at 62.5 g/ha [2] | pest or weed control at 125 g/ha [3] | pest or weed control at 125 g/ha [4]

Cc1c(NC(=O)N(CC(F)(F)F)CC(F)(F)F)c(Br)cc(F)c1C(=O)Nc1nnnn1C [Example 3]
> 85%: pest or weed control at 62.5 g/ha [1] | pest or weed control at 62.5 g/ha [2] | pest or weed control at 125 g/ha [3] | pest or weed control at 125 g/ha [4]

CN(CC(F)(F)F)C(=O)Nc1c(Cl)cc(F)c(C(=O)Nc2nnnn2C)c1Cl [Example 9, 2,4-dichloro-6-fluoro-N-(1-methyltetrazol-5-yl)-3-[[methyl(2,2,2-trifluoroethyl)carbamoyl]amino]benzamide]
> 85%: pest or weed control at 62.5 g/ha [1] | pest or weed control at 62.5 g/ha [2] | pest or weed control at 125 g/ha [3]

Cc1c(NC(=O)N(CC(F)(F)F)C2CC2)c(Br)cc(F)c1C(=O)Nc1nnnn1C [Example 6]
> 85%: pest or weed control at 62.5 g/ha [1] | pest or weed control at 62.5 g/ha [2] | pest or weed control at 125 g/ha [3] | pest or weed control at 125 g/ha [4]

Cn1nnnc1NC(=O)c1c(F)cc(C(F)(F)F)c(NC(=O)N(CC(F)(F)F)CC(F)(F)F)c1Cl [Example 22]
> 85%: pest or weed control at 62.5 g/ha [1] | pest or weed control at 62.5 g/ha [2] | pest or weed control at 125 g/ha [3] | pest or weed control at 125 g/ha [4]

Cc1c(NC(=O)N(CC(F)(F)F)CC(F)(F)F)c(Cl)cc(F)c1C(=O)Nc1nnnn1C [Example 19]
> 85%: pest or weed control at 62.5 g/ha [1] | pest or weed control at 62.5 g/ha [2] | pest or weed control at 125 g/ha [3]

Cc1c(NC(=O)N(CC(F)(F)F)C(C)C)c(Cl)cc(F)c1C(=O)Nc1nnnn1C [Example 13]
> 85%: pest or weed control at 62.5 g/ha [1] | pest or weed control at 62.5 g/ha [2] | pest or weed control at 125 g/ha [3] | pest or weed control at 125 g/ha [4]

Cc1c(NC(=O)N(CC(F)(F)F)C2CC2)c(Cl)cc(F)c1C(=O)Nc1nnnn1C [Example 21]
> 85%: pest or weed control at 62.5 g/ha [1] | pest or weed control at 62.5 g/ha [2] | pest or weed control at 125 g/ha [3] | pest or weed control at 125 g/ha [4]

CC(C)N(CC(F)(F)F)C(=O)Nc1c(Cl)cc(F)c(C(=O)Nc2nnnn2C)c1Cl [Example 20]
> 85%: pest or weed control at 62.5 g/ha [1] | pest or weed control at 62.5 g/ha [2] | pest or weed control at 125 g/ha [3]

CCN(CC(F)(F)F)C(=O)Nc1c(Br)cc(F)c(C(=O)Nc2nnnn2C)c1C [Example 2, 4-bromo-6-fluoro-2-methyl-N-(1-methyltetrazol-5-yl)-3-[[ethyl(2,2,2-trifluoroethyl)carbamoyl]amino]benzamide]
> 85%: pest or weed control at 62.5 g/ha [1] | pest or weed control at 62.5 g/ha [2] | pest or weed control at 125 g/ha [3] | pest or weed control at 125 g/ha [4]

CCN(CC(F)(F)F)C(=O)Nc1c(Cl)cc(F)c(C(=O)Nc2nnnn2C)c1C [Example 18]
> 85%: pest or weed control at 62.5 g/ha [1] | pest or weed control at 62.5 g/ha [2] | pest or weed control at 125 g/ha [3] | pest or weed control at 125 g/ha [4]

Reference: patent US20200369629A1, “BENZAMIDE COMPOUNDS AND THEIR USE AS HERBICIDES” (BASF SE, priority 2017, published 2020)
